The values below come from patent US9834558B2, “Substituted bridged urea analogs as sirtuin modulators” (GLAXOSMITHKLINE LLC, priority 2013, dated 2017).

The experiment has as its target T1, SIRT1 (Homo sapiens, UniProt Q96EB6).
T1 sequence (Q96EB6 1-747): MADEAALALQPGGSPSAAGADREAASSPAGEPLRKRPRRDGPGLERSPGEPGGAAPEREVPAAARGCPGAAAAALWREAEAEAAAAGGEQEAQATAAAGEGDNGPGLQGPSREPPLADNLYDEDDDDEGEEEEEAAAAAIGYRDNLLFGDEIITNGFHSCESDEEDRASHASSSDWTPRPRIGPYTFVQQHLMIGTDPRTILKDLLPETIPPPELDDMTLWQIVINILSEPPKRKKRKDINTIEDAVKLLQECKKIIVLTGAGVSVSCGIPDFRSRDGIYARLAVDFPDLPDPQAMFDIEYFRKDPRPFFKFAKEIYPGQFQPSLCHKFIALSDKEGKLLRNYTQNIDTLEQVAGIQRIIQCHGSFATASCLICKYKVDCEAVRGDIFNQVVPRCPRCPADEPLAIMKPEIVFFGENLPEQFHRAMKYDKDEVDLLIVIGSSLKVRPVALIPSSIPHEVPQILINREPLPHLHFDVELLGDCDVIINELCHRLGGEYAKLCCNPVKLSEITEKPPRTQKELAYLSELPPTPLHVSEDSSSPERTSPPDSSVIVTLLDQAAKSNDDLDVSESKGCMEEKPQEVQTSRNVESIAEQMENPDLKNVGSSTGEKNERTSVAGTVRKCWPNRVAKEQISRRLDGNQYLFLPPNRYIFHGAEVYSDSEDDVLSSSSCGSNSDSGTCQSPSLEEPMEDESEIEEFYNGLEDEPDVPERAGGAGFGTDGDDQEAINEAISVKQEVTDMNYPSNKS
Briefly: Trp mass spectrometry assay of SIRT1 activation. It is filed as biochemical. The following applies: Trp peptide assay; for TRP Activity (EC1.5): EC1.5 = concentration that results in 150% activation of SIRT1; for Emax: maximum activity relative to control (100%), read-out: TRP MAX RESP (percent maximum fold activation). The method, boiled down: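 N-terminal His-tagged human SIRT1 (10 nM, E. coli BL21(DE3)) with 0.5 μM Ac-RHKK(Ac)W-NH2 peptide and 120 μM βNAD+, 25 min at 25 °C in HEPES pH 7.5, formic acid stop. OAADPR or deacetylated peptide quantified by mass spectrometry; EC1.5 (50% activity increase over control) and Percent Maximum Activation reported.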

For the molecule `Cc1cc(-c2ccc3c(n2)N(C(=O)N[C@@H](C)c2ccccn2)[C@H]2CCN3C2)ccn1` [(9S)-5-(2-methylpyridin-4-yl)-N-[(1S)-1-(pyridin-2-yl)ethyl]-1,6,8-triazatricyclo[7.2.1.0 {2,7}]dodeca-2,4,6-triene-8-carboxamide], the “TRP Activity (EC1.5)” value was “C (C (EC1.5>25 μM))” and the Emax is under 150%.
In the same order, the values of `Cc1cc(-c2ccc3c(n2)N(C(=O)Nc2cc4cn[nH]c4cn2)[C@H]2CCN3C2)ccn1` [(9S)-5-(2-methylpyridin-4-yl)-N-{1H-pyrazolo[3,4-c]pyridin-5-yl}-1,6,8-triazatricyclo[7.2.1.0 {2,7}]dodeca-2(7),3,5-triene-8-carboxamide] are “A (A (EC1.5<1 μM))” and over 150%.
In the same order, the values of `Cc1cc(-c2ccc3c(n2)N(C(=O)Nc2ccc4[nH]ncc4n2)[C@H]2CCN3C2)ccn1` [(9S)-5-(2-methylpyridin-4-yl)-N-{1H-pyrazolo[4,3-b]pyridin-5-yl}-1,6,8-triazatricyclo[7.2.1.0 {2,7}]dodeca-2(7),3,5-triene-8-carboxamide] are “A (A (EC1.5<1 μM))” and over 150%.
In the same order, the values of `Cc1cc(-c2ccc3c(n2)N(C(=O)Nc2ncnc4[nH]nnc24)[C@H]2CCN3C2)ccn1` [(9S)-5-(2-methylpyridin-4-yl)-N-{3H-[1,2,3]triazolo[4,5-d]pyrimidin-7-yl}-1,6,8-triazatricyclo[7.2.1.0^{2,7}]dodeca-2,4,6-triene-8-carboxamide] are “C (C (EC1.5>25 μM))” and under 150%.
Turning to `Cc1cc(-c2ccc3c(n2)N(C(=O)Nc2nccc4nccnc24)[C@H]2CCN3C2)ccn1` [(9S)-5-(2-methylpyridin-4-yl)-N-{pyrido[3,4-b]pyrazin-5-yl}-1,6,8-triazatricyclo[7.2.1.0 {2,7}]dodeca-2,4,6-triene-8-carboxamide], the “TRP Activity (EC1.5)” value is reported as “B (B (EC1.5 1-25 μM))” and the Emax is over 150%.
In the case of `Cc1ncc(-c2ccc3c(n2)N(C(=O)Nc2cnccn2)[C@H]2CCN3C2)cn1` [(9S)-5-(2-methylpyrimidin-5-yl)-N-(pyrazin-2-yl)-1,6,8-triazatricyclo[7.2.1.0 {2,7}]dodeca-2(7),3,5-triene-8-carboxamide], the “TRP Activity (EC1.5)” value is given as “B (B (EC1.5 1-25 μM))” and the Emax was over 150%.
In the same order, the values of `Cc1cc(-c2ccc3c(n2)N(C(=O)Nc2cnccn2)[C@H]2CCN3C2)[nH]n1` [(9S)-5-(3-methyl-1H-pyrazol-5-yl)-N-(pyrazin-2-yl)-1,6,8-triazatricyclo[7.2.1.0^{2,7}]dodeca-2(7),3,5-triene-8-carboxamide] are “B (B (EC1.5 1-25 μM))” and over 150%.
Consider `Cc1cc(C)c(-c2ccc3c(n2)N(C(=O)Nc2cnccn2)[C@H]2CCN3C2)cn1` [(9S)-5-(4,6-dimethylpyridin-3-yl)-9-N-(pyrazin-2-yl)-1,6,8-triazatricyclo[7.2.1.0 {2,7}]dodeca-2(7),3,5-triene-8-carboxamide], for which the “TRP Activity (EC1.5)” value was “C (C (EC1.5>25 μM))” and the Emax was under 150%.
Take `Cc1cc(C)c(-c2ccc3c(n2)N(C(=O)Nc2cccnc2)[C@H]2CCN3C2)cn1` [(9S)-5-(4,6-dimethylpyridin-3-yl)-N-(pyridin-3-yl)-1,6,8-triazatricyclo[7.2.1.0 {2,7}]dodeca-2(7),3,5-triene-8-carboxamide]: the “TRP Activity (EC1.5)” value is listed as “B (B (EC1.5 1-25 μM))” and the Emax was over 150%.
On to `CN1CCN(c2ccc3c(n2)N(C(=O)Nc2cnccn2)[C@H]2CCN3C2)CC1` [(9S)-5-(4-methylpiperazin-1-yl)-N-(pyrazin-2-yl)-1,6,8-triazatricyclo[7.2.1.0 {2,7}]dodeca-2(7),3,5-triene-8-carboxamide], for which the “TRP Activity (EC1.5)” value is given as “B (B (EC1.5 1-25 μM))” and the Emax was over 150%.
